This note sets out measurements from patent US20260042774A1, “CAMPTOTHECIN-7-ETHYLAMINE DERIVATIVE, PREPARATION METHOD THEREFOR, AND USE THEREOF” (HANGZHOU ADCORIS BIOPHARMA CO., LTD, priority 2022, published 2026).

Like-named read-outs stand apart in the source and are kept apart here.

Assay type in all cases: cell-based
One test deals with NCI-H1975. Briefly: Tumor cell growth inhibitory activity, NCI-H1975.
The subject of test [1] is human breast adenocarcinoma cells SK-BR-3. Briefly: Tumor cell growth inhibitory activity (CCK-8), SK-BR-3. The procedure:
(§1) Human esophageal cancer cells OE33 (human breast adenocarcinoma cells SK-BR-3, or human gastric cancer cells NCI-N87) was cultured in RPMI1640 (Cellmax) supplemented with 10% fetal bovine serum (Cellmax). Cells in the exponential growth phase were diluted to a concentration of 1×10^5 cells/mL by culture medium and added to 96-well cell culture plates at 100 μL per well, then returned back and incubated overnight in a 37° C. incubator with 5% CO2. On the following day, the compounds were diluted to concentrations of 10000 nM, 2000 nM, 400 nM, 80 nM, 16 nM, 3.2 nM, 0.64 nM, and 0.13 nM by culture medium and the diluted compounds were added to the 96-well cell culture plates at 2 μL per well, with three replicate wells for each concentration. Negative control and blank control groups without addition of compounds were added with 2 μL of the dilution liquid per well. After the addition of the compounds, the plates were returned back to the 37° C. incubator with 5% CO2 to continue the incubation for 72 h. After the incubation, the cell culture plates were removed, and the culture medium was aspirated using a pipette. Then, 100 μL of culture medium containing 10% CCK-8 was added to each well, and the plates were incubated at 37° C. for 3 h. After the incubation, the plates were removed, kept in the dark, and placed in an ELISA plate. Absorbance was measured at 630 nm as the reference wavelength and 450 nm as the test wavelength. The IC50 values (Table 2) were calculated using the four-parameter logistic regression method in GraphPad.

Test [2] has as its system human gastric cancer cells NCI-N87. Briefly: Tumor cell growth inhibitory activity (CCK-8), NCI-N87. The procedure:
as §1

In test [3] the test system is Human esophageal cancer cells OE33. As to the kind of experiment: Tumor cell growth inhibitory activity (CCK-8), OE33. The procedure:
as §1

In the next test the test system is MDA-MB-231. As to the kind of experiment: Tumor cell growth inhibitory activity, MDA-MB-231.
[4] abbreviates: Homo sapiens, NCI-H1975 cells, read-out: IC50 (nM) for inhibiting the growth of tumor cells, NCI-H1975.
[5] abbreviates: Homo sapiens, SK-BR-3 cells, 72 h incubation, CCK-8, read-out: IC50 (nM) for inhibiting the growth of tumor cells, SK-BR-3.
[6] abbreviates: Homo sapiens, NCI-N87 cells, 72 h incubation, CCK-8, read-out: IC50 (nM) for inhibiting the growth of tumor cells, NCI-N87.
Setting [7] is: Homo sapiens, OE33 cells, 72 h incubation, CCK-8, read-out: IC50 (nM) for inhibiting the growth of tumor cells, OE33.
[8] abbreviates: Homo sapiens, MDA-MB-231 cells, read-out: IC50 (nM) for inhibiting the growth of tumor cells, MDA-MB-231.
[9] abbreviates: Homo sapiens, NCI-H1975, read-out: IC50 (nM) for inhibiting the growth of tumor cells, NCI-H1975, NCI-H1975 cells.
Setting [10] is: Homo sapiens, SK-BR-3, 72 h, read-out: IC50 (nM) for inhibiting the growth of tumor cells, SK-BR-3, SK-BR-3 cells, 72 h incubation, CCK-8.
Where [11] appears, read: Homo sapiens, NCI-N87, 72 h, read-out: IC50 (nM) for inhibiting the growth of tumor cells, NCI-N87, NCI-N87 cells, 72 h incubation, CCK-8.
[12] abbreviates: Homo sapiens, OE33, 72 h, read-out: IC50 (nM) for inhibiting the growth of tumor cells, OE33, OE33 cells, 72 h incubation, CCK-8.
Where [13] appears, read: Homo sapiens, MDA-MB-231, read-out: IC50 (nM) for inhibiting the growth of tumor cells, MDA-MB-231, MDA-MB-231 cells.

Broadly, the IC50 is the midpoint of a concentration-inhibition curve. `CC[C@@]1(O)C(=O)OCc2c1cc1n(c2=O)Cc2c-1nc1cc(F)c(F)cc1c2CCNC1CCC(OC)CC1` (stereo partly shown) [Compound 14, 7-(2-(4-Methoxycyclohexyl)amino)ethyl-10,11-difluorocamptothecin]: the IC50 came out at 383 nM with NCI-H1975 (setting [4]); 36.1 nM in test [1] (setting [5]); 5.3 nM in test [2] (setting [6]); 26.1 nM in test [3] (setting [7]); 460 nM in the test with MDA-MB-231 (setting [8]).

As for `CC[C@@]1(O)C(=O)OCc2c1cc1n(c2=O)Cc2c-1nc1cc(F)c(C)cc1c2CCN[C@@H](C)CCO` [Compound 9, 7-(2-((S)-4-Hydroxybutan-2-yl)amino)ethyl-10-methyl-11-fluorocamptothecin], the IC50 in the test with NCI-H1975 (setting [4]) is 121 nM; in test [1] (setting [5]), 14.1 nM; in test [2] (setting [6]), 1.6 nM; in test [3] (setting [7]) it was 6.59 nM; in the test on MDA-MB-231 (setting [8]), 173 nM.

`CC[C@@]1(O)C(=O)OCc2c1cc1n(c2=O)Cc2c-1nc1cc(F)c(C)cc1c2CCNC(C)=O` [Compound 1, 7-(2-Acetylamino)ethyl-10-methyl-11-fluorocamptothecin]: the IC50 in the test on NCI-H1975 (setting [4]) was determined as 361 nM; in test [1] (setting [5]), 19.5 nM; in test [2] (setting [6]), 3.78 nM; in test [3] (setting [7]), 21.3 nM; with MDA-MB-231 (setting [8]), 350 nM.

Take `CC[C@@]1(O)C(=O)OCc2c1cc1n(c2=O)Cc2c-1nc1cc3c(cc1c2CCN[C@@H]1CCOC1)OCO3` [Compound 34, 7-(2-(N-(R)-Tetrahydrofuran-3-ylamino))ethyl-10,11-methylenedioxycamptothecin]: the IC50 in the test with NCI-H1975 (setting [9]) was found to be 14.4 nM; in test [1] (setting [10]) it was 0.45 nM; in test [2] (setting [11]) it was 54.2 nM; in test [3] (setting [12]), 2.94 nM; in the test on MDA-MB-231 (setting [13]), 41.8 nM.

On to `CC[C@@]1(O)C(=O)OCc2c1cc1n(c2=O)Cc2c-1nc1cc3c(cc1c2CCNCC(F)F)OCO3` [Compound 24, 7-(2-(2-Difluoroethyl)amino)ethyl-10,11-methylenedioxycamptothecin], for which the IC50 was found to be 15.6 nM in the test on NCI-H1975 (setting [9]); 2.96 nM in test [1] (setting [10]); 0.24 nM in test [2] (setting [11]); 0.56 nM in test [3] (setting [12]); 78.2 nM in the test on MDA-MB-231 (setting [13]).

On to `CC[C@@]1(O)C(=O)OCc2c1cc1n(c2=O)Cc2c-1nc1cc3c(cc1c2CCNC1CCC(OC)CC1)OCO3` (stereo partly shown) [Compound 27, 7-(2-(4-Methoxycyclohexyl)amino)ethyl-10,11-methylenedioxycamptothecin], for which the IC50 was 30.2 nM in the test with NCI-H1975 (setting [9]); 26.1 nM in test [1] (setting [10]); 2.91 nM in test [2] (setting [11]); 7.9 nM in test [3] (setting [12]); 155 nM in the test with MDA-MB-231 (setting [13]).

Regarding `CC[C@@]1(O)C(=O)OCc2c1cc1n(c2=O)Cc2c-1nc1cc3c(cc1c2CCN(C(=O)CO)[C@@H](C)COC)OCO3` [Compound 30, 7-(2-(N-Hydroxyacetyl((S)-methoxyisopropyl))amino)ethyl-10,11-methylenedioxycamptothecin], the IC50 in the test on NCI-H1975 (setting [4]) is 15.4 nM; in test [1] (setting [5]), 6.23 nM; in test [2] (setting [6]) it was 1.56 nM; in test [3] (setting [7]), 6.47 nM; with MDA-MB-231 (setting [8]), 98.5 nM.

Consider `CC[C@@]1(O)C(=O)OCc2c1cc1n(c2=O)Cc2c-1nc1cc(F)c(C)c3c1c2[C@@H](NC(=O)CO)CC3` [Dxd, reference compound], for which the IC50 with NCI-H1975 (NCI-H1975 cells, read-out: IC50 (nM) for inhibiting the growth of tumor cells, NCI-H1975) turned out to be 286 nM; in test [1] (SK-BR-3 cells, 72 h incubation, CCK-8, read-out: IC50 (nM) for inhibiting the growth of tumor cells, SK-BR-3), 9.69 nM; in test [2] (NCI-N87 cells, 72 h incubation, CCK-8, read-out: IC50 (nM) for inhibiting the growth of tumor cells, NCI-N87), 2.48 nM; in test [3] (OE33 cells, 72 h incubation, CCK-8, read-out: IC50 (nM) for inhibiting the growth of tumor cells, OE33) it was 7.01 nM; with MDA-MB-231 (MDA-MB-231 cells, read-out: IC50 (nM) for inhibiting the growth of tumor cells, MDA-MB-231) it was 135 nM.

Take `CC[C@@]1(O)C(=O)OCc2c1cc1n(c2=O)Cc2c-1nc1cc(F)c(F)cc1c2CCNC1CCOCC1` [Compound 13, 7-(2-(Tetrahydropyran-4-yl)amino)ethyl-10,11-difluorocamptothecin]: the IC50 worked out at 9.83 nM in the test with NCI-H1975 (setting [4]); 5.63 nM in test [1] (setting [5]); 0.93 nM in test [2] (setting [6]); 1.96 nM in test [3] (setting [7]); 72.7 nM in the test with MDA-MB-231 (setting [8]).

With `CC[C@@]1(O)C(=O)OCc2c1cc1n(c2=O)Cc2c-1nc1cc(F)c(C)cc1c2CCNCCN=[N+]=[N-]` [Compound 8, 7-(2-(2-Azidoethyl)amino)ethyl-10-methyl-11-fluorocamptothecin], the IC50 is 18.5 nM in the test with NCI-H1975 (setting [4]); 4.92 nM in test [1] (setting [5]); 0.68 nM in test [2] (setting [6]); 3.26 nM in test [3] (setting [7]); 80.4 nM with MDA-MB-231 (setting [8]).

Consider `CC[C@@]1(O)C(=O)OCc2c1cc1n(c2=O)Cc2c-1nc1cc3c(cc1c2CCNC1CCOCC1)OCO3` [Compound 25, 7-(2-(Tetrahydropyran-4-yl)amino)ethyl-10,11-methylenedioxycamptothecin], for which the IC50 came to 15.8 nM with NCI-H1975 (setting [9]); 4.96 nM in test [1] (setting [10]); 0.46 nM in test [2] (setting [11]); 4.89 nM in test [3] (setting [12]); 21.3 nM in the test with MDA-MB-231 (setting [13]).

Turning to `CC[C@@]1(O)C(=O)OCc2c1cc1n(c2=O)Cc2c-1nc1cc3c(cc1c2CCN[C@@H](C)COC)OCCO3` [Compound 45, 7-(2-((S)-Methoxyisopropyl)amino)ethyl-10,11-ethylenedioxycamptothecin], the IC50 amounted to 106 nM in the test with NCI-H1975 (setting [4]); 18.5 nM in test [1] (setting [5]); 2.46 nM in test [2] (setting [6]); 10.3 nM in test [3] (setting [7]); 960 nM with MDA-MB-231 (setting [8]).

Take `CC[C@@]1(O)C(=O)OCc2c1cc1n(c2=O)Cc2c-1nc1cc3c(cc1c2CCN[C@@H](C)CCO)OCO3` [Compound 18, 7-(2-((S)-4-Hydroxybutyl-2-yl)amino)ethyl-10,11-methylenedioxycamptothecin]: the IC50 in the test with NCI-H1975 (read-out: IC50 (nM) for inhibiting the growth of tumor cells, NCI-H1975, NCI-H1975 cells) was 222 nM; in test [1] (read-out: IC50 (nM) for inhibiting the growth of tumor cells, SK-BR-3, SK-BR-3 cells, 72 h incubation, CCK-8), 17.1 nM; in test [2] (read-out: IC50 (nM) for inhibiting the growth of tumor cells, NCI-N87, NCI-N87 cells, 72 h incubation, CCK-8), 3.63 nM; in test [3] (read-out: IC50 (nM) for inhibiting the growth of tumor cells, OE33, OE33 cells, 72 h incubation, CCK-8), 20.4 nM; with MDA-MB-231 (setting [13]) it was 446 nM.

As to `CC[C@@]1(O)C(=O)OCc2c1cc1n(c2=O)Cc2c-1nc1cc(F)c(C)cc1c2CCNC1CCOCC1` [Compound 4, 7-(2-(Tetrahydropyran-4-yl)amino)ethyl-10-methyl-11-fluorocamptothecin], the IC50 in the test with NCI-H1975 (setting [4]) came out at 247 nM; in test [1] (setting [5]), 6.12 nM; in test [2] (setting [6]), 2.48 nM; in test [3] (setting [7]), 4.39 nM; in the test with MDA-MB-231 (setting [8]), 321 nM.

In the case of `CC[C@@]1(O)C(=O)OCc2c1cc1n(c2=O)Cc2c-1nc1cc(F)c(C)cc1c2CCNC1CCC(OC)CC1` (stereo partly shown) [Compound 7, 7-(2-(4-Methoxycyclohexyl)amino)ethyl-10-methyl-11-fluorocamptothecin], the IC50 stood at 92.2 nM with NCI-H1975 (setting [4]); 22.2 nM in test [1] (setting [5]); 2.02 nM in test [2] (setting [6]); 6.46 nM in test [3] (setting [7]); 147 nM in the test with MDA-MB-231 (setting [8]).

Take `CC[C@@]1(O)C(=O)OCc2c1cc1n(c2=O)Cc2c-1nc1cc3c(cc1c2CCN[C@@H](C)CN=[N+]=[N-])OCO3` [Compound 29, 7-(2-((S)-Azidoisopropyl)amino)ethyl-10,11-methylenedioxycamptothecin]: the IC50 in the test with NCI-H1975 (setting [9]) amounted to 5.56 nM; in test [1] (setting [10]) it was 2 nM; in test [2] (setting [11]) it was 0.84 nM; in test [3] (setting [12]), 1.4 nM; with MDA-MB-231 (setting [13]) it was 32.7 nM.

In the case of `CC[C@@]1(O)C(=O)OCc2c1cc1n(c2=O)Cc2c-1nc1cc3c(cc1c2CCN[C@H]1CCOC1)OCO3` [Compound 35, 7-(2-(N-(S)-Tetrahydrofuran-3-ylamino))ethyl-10,11-methylenedioxycamptothecin], the IC50 came out at 18.5 nM in the test on NCI-H1975 (setting [9]); 0.87 nM in test [1] (setting [10]); 54 nM in test [2] (setting [11]); 2.18 nM in test [3] (setting [12]); 73.5 nM in the test with MDA-MB-231 (setting [13]).
